In patent publication US8741905B2, “Compounds and methods for treating autoimmune diseases” (The Broad Institute, Inc., priority 2010, dated 2014):

What was measured:
Assay type in all cases: cell-based
STAT1 [1] = assay: STAT1 phosphorylation; settings: FIG. 8
Description: siRNAs (100 nM) were transfected into INS-1E cells (5,000 cells/well in a 384-well plate) using DharmaFECT reagent. Transfected cells were cultured for 72 hr, then collected for Western blot analysis and cell-based assays. For Western blotting, cells were lysed in RIPA buffer. Total protein was separated by 4-12% SDS-PAGE and transferred to a PVDF membrane. Blots were developed using the chemiluminescence detection system SuperSignal (Thermo Fisher Scientific) and light emission was captured using an Imaging Station 4000MM (Carestream).

dissociated human islets = assay: Cytokine-induced caspase-3/7 activity in dissociated human islets; settings: six-day cytokine treatment, co-incubation
Source text: Without being bound by any theory the following postulated to relate the activity of the compounds of Formula I in autoimmune diseases. Human beta-cell apoptosis involves a complex set of signaling cascades initiated by IL-1β, IFN-γ, and TNF-α. IL-1β and TNF-α induce NF-κB expression, while downstream activation of gene expression is thought to occur through nitric oxide (NO) signaling, which both increases the endoplasmic reticulum stress-response pathway and decreases beta-cell function; this pathway works together with IFN-γ-induced STAT-1 signaling to effect beta-cell death. These effects of cytokines are beta cell-specific, and small-molecule suppressors should have little to no effect on other cell types in the pancreas. Small molecules that increase beta-cell survival in the presence of cytokines could be of potential clinical benefit to early-stage type 1 diabetic patients. A number of studies have described small molecules with protective effects in the presence of cytokines; most of these were discovered because of their nonspecific antioxidant or anti-inflammatory effects. […] Because of the use of dissociated islets and a whole-well readout of caspase activity, it cannot be certain that only beta cells are undergoing apoptosis; however, based on previous results in the literature, beta cells may constitute the majority of the apoptotic effect.

STAT1 [2] = assay: Nuclear STAT1 translocation; settings: FIG. 9

For `C[C@@H]1CN([C@@H](C)CO)C(=O)c2cccc(NC(=O)Nc3cccc4ccccc34)c2O[C@H]1CN(C)S(=O)(=O)c1ccc2c(c1)OCCO2` [Compound 21A, N-(((2R,3R)-5-((S)-1-Hydroxypropan-2-yl)-3-methyl-10-(3-(naphthalen-1-yl)ureido)-6-oxo-3,4,5,6-tetrahydro-2H-benzo[b][1,5]oxazocin-2-yl)methyl)-N-methyl-2,3-dihydrobenzo-[b][1,4]dioxine-6-sulfonamide], the STAT1 phosphorylation (STAT1 [1]) was “Suppression of STAT1 phosphorylation”, the “cytokine-induced caspase-3/7 activity (induced by approximately 60%)” value (dissociated human islets) was “abolished” and the “nuclear STAT1 translocation” value (STAT1 [2]) was “Inhibition of nuclear STAT1 translocation”.
